The text below walks through data of patent publication US10570152B2, “Antibacterial therapeutics and prophylactics” (VYOME BIOSCIENCES PVT. LTD., priority 2015, dated 2020).

Each structure is given as a SMILES string. ≈ marks a conversion by molar mass, not a printed value. Some results are limits rather than exact numbers.

Data set [1] deals with P. acnes CCARM 9010 induced paw inflammation. The experiment in a line: Anti-inflammatory action in vivo, rat paw edema model. Also on record: species or system Sprague Dawley rats. The following applies: topical, 24 h post initiation of treatment (32 h post induction). An excerpt:
Host inflammation is one of the crucial clinical feature of most of the indications associated with bacterial infections. The inventors used an exemplary compound of the invention (Compound 2) to test the anti-inflammatory effects in vivo using rat paw edema model. Inflammation was induced using one of the opportunistic pathogens Propionibacterium acnes prevalent in implant associated infections. Sprague Dawley rats were used for the study and infection was induced by P. acnes CCARM 9010. An inoculum of 1×10^9 CFU/ml of the heat killed bacteria was injected to the plantar side of the right hind paw (˜2×10^7 CFU/paw) except in sham control where saline was injected. Treatments were initiated 8 h post injection by applying the test formulation of Compound 2 (30 mg) twice daily to the plantar surface of the right hind paw and gently rubbing 50 times with the index finger. Comparators Acnedap (dapsone 5% gel) and adapalene gel (Adaferin®) were applied twice daily and once daily based on clinical prescription dosage. Paw sizes were measured in millimeters using Vernier calipers at the start of the infection, 8 h post infection, and 24 h post initiation of treatment (32 h post induction of inflammation). The change in paw size, due to inflammation, was evaluated as the difference between the paw size measured at each time point and the basal paw size measured immediately before edema induction.

Data set [2] deals with P. aeruginosa ATCC 27853. Description: MIC by micro broth dilution. The class given is cell-based. The following applies: Pseudomonas aeruginosa, ATCC27853, read-out: Minimum inhibitory concentration (MIC). In short, it runs like this:
(§1)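 Twofold serial dilutions in BHI broth per CLSI, inoculated with 0.5 McFarland culture (approx. 1.5×10^8 cells/ml) diluted 100-fold. Plates incubated 24 h at 37° C.; MIC read after Alamar blue addition.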
(In broth dilution the organism is exposed to a series of concentrations in liquid medium.)

Data set [3] concerns A. baumannii CCARM 12001. The experiment in a line: MIC by micro broth dilution. The data set is classed as cell-based. The following applies: Acinetobacter baumannii, CCARM12001, read-out: Minimum inhibitory concentration (MIC). An outline of the steps:
as §1

Data set [4] deals with E. faecium NCIM 5421. The experiment in a line: MIC by micro broth dilution. The data set is classed as cell-based. Particulars: Enterococcus faecium, NCIM5421, read-out: Minimum inhibitory concentration (MIC). In short, it runs like this:
as §1

Data set [5] has as its system E. fecalis CCARM 5168. The experiment in a line: MIC by micro broth dilution. Particulars: read-out: Minimum inhibitory concentration (MIC). The class given is cell-based. In short, it runs like this:
as §1

The test system of data set [6] is K. pneumonia ATCC 13883. Description: MIC by micro broth dilution. The class given is cell-based. An outline of the steps: as §1
For data set [7], the system named is E. aerogenes M2-1. The experiment in a line: MIC by micro broth dilution. The data set is classed as cell-based. The following applies: Klebsiella aerogenes, M21, read-out: Minimum inhibitory concentration (MIC). In short, it runs like this:
as §1

Data set [8] has as its system S. aureus CCARM 3505. Description: MIC by micro broth dilution. The class given is cell-based. The following applies: Staphylococcus aureus, CCARM3505, read-out: Minimum inhibitory concentration (MIC). In short, it runs like this: as §1
In data set [9] the test system is E. aerogenes NCIM 5139. The experiment in a line: MIC by micro broth dilution. The data set is classed as cell-based. Particulars: Klebsiella aerogenes, NCIM5139, read-out: Minimum inhibitory concentration (MIC). In short, it runs like this: as §1
Data set [10] deals with S. epidermidis ATCC 35984. Description: MIC by micro broth dilution. The following applies: Staphylococcus epidermidis, ATCC35984, read-out: Minimum inhibitory concentration (MIC). The class given is cell-based. An outline of the steps: as §1
The subject of data set [11] is P. aeruginosa CCARM 2161. The experiment in a line: MIC by micro broth dilution. The data set is classed as cell-based. Particulars: Pseudomonas aeruginosa, CCARM2161, read-out: Minimum inhibitory concentration (MIC). In short, it runs like this:
as §1

Data set [12] has as its system S. aureus ATCC 43300. Description: MIC by micro broth dilution. The class given is cell-based. The following applies: Staphylococcus aureus, ATCC43300; S. aureus ATCC 43300; read-out: Minimum inhibitory concentration (MIC). An outline of the steps:
as §1

The subject of data set [13] is P. aeruginosa CCARM 2204. Description: MIC by micro broth dilution. The class given is cell-based. Particulars: Pseudomonas aeruginosa, CCARM2204, read-out: Minimum inhibitory concentration (MIC). An outline of the steps:
as §1

Data set [14] deals with S. epidermidis S12-1. Description: MIC by micro broth dilution. The class given is cell-based. The following applies: Staphylococcus epidermidis, S121, read-out: Minimum inhibitory concentration (MIC). In short, it runs like this: as §1
The subject of data set [15] is A. baumannii ATCC 1906. The experiment in a line: MIC by micro broth dilution. The class given is cell-based. The following applies: Acinetobacter baumannii, ATCC1906, read-out: Minimum inhibitory concentration (MIC). In short, it runs like this:
as §1

The test system of data set [16] is S. aureus MTCC 6908. Description: MIC by micro broth dilution. The data set is classed as cell-based. Particulars: Staphylococcus aureus, MTCC6908, read-out: Minimum inhibitory concentration (MIC). An outline of the steps:
as §1

In data set [17] the test system is E. faecium CCARM 5207. Description: MIC by micro broth dilution. The data set is classed as cell-based. The following applies: Enterococcus faecium, CCARM5207, read-out: Minimum inhibitory concentration (MIC). An outline of the steps: as §1
Data set [18] deals with A. baumannii CCARM 12020. The experiment in a line: MIC by micro broth dilution. The data set is classed as cell-based. The following applies: Acinetobacter baumannii, CCARM12020, read-out: Minimum inhibitory concentration (MIC). An outline of the steps: as §1
Data set [19] has as its system E. coli BAA 196. Description: MIC by micro broth dilution. The class given is cell-based. The following applies: Escherichia coli, BAA196, read-out: Minimum inhibitory concentration (MIC). In short, it runs like this: as §1
The subject of data set [20] is E. coli MTCC 1687. Description: MIC by micro broth dilution. The class given is cell-based. The following applies: Escherichia coli, MTCC1687, read-out: Minimum inhibitory concentration (MIC). An outline of the steps: as §1
For data set [21], the system named is S. epidermidis S5-2. Description: Sequential ZIB (zone of inhibition) assay for PMMA beads. The class given is cell-based, Staphylococcus epidermidis. Particulars: SmartSet HV impregnated beads. The protocol:
S. epidermidis S5-2 cells were grown in Brain Heart Infusion Agar (BHIA) at 37° C. for 24 h. 100 μl of 0.5 McFarland equal bacterial suspension was spread on BHA plates. Drug loaded beads were placed above these plates. Plates were incubated at 37° C. for 24 h. Next day, zone of inhibition (ZOI) the beads were measured following which the beads were placed on fresh BHA plates with bacterial suspension spread and this experiment was continued up to seven days. The drug release pattern was determined by compiling and analyzing the ZOI data of beads on each ZOI cycle up to seven days.

A short description of data set [22]: Drug release assay of compound impregnated Smart set HV. The data set is classed as physicochemical. The following applies: Smart set HV loaded; PBS buffer (pH 6.8):acetonitrile (9:1), 32° C., 7 days. How it is done:
The drug release study with compound 2 and compound 10 were conducted in sample vial containing 1.5 ml of dissolution media i.e., PBS buffer (pH 6.8):acetonitrile (9:1). The sample was kept in incubator rotator at 32° C. at 40 rpm. The release medium was withdrawn at specified interval of time (2 hr, 4 hr, 6 hr, day 1, day 2, day 3, day 4, day 5, day 6, day 7 and replaced by fresh 1.5 ml dissolution medium each time. All the samples were kept at −20° C. till the analysis is done. The measurement of drug release was done by HPLC.

Take `COc1ccc(-c2ccc3cc(C(=O)O)ccc3c2)cc1C12CC3CC(CC(C3)C1)C2` [Adapalene, adapalene, reference compound]: the “Inhibition of inflammation (%) at 24 h post treatment” value in [1] is reported as 31.55%.
Consider `CC1Sc2c(C(=O)O)c(=O)c3cc(F)c(N4CCN(Cc5ccc([N+](=O)[O-])o5)CC4)cc3n21` (stereo not drawn) [Compound 10, 6-Fluoro-1-methyl-7-(4-((5-nitrofuran-2-yl)methyl)piperazin-1-yl)-4-oxo-1H,4H-[1,3]thiazeto[3,2-a]-quinoline-3-carboxylic acid], for which the MIC was 1 µg/mL (≈ 2.11 µM) in [2]; more than 16 µg/mL in [3]; 0.125 µg/mL (≈ 0.263 µM) in data set [4]; 1 µg/mL (≈ 2.11 µM) in [5]; 0.25 µg/mL (≈ 0.527 µM) in data set [6] (Klebsiella pneumoniae, ATCC13883, K. pneumonia ATCC 13883, read-out: Minimum inhibitory concentration (MIC)); 0.25 µg/mL (≈ 0.527 µM) in data set [7]. Also, the MIC in data set [8] was 1 µg/mL (≈ 2.11 µM); in data set [9], 0.125 µg/mL (≈ 0.263 µM); in data set [10], less than 0.03 µg/mL; in data set [11], more than 16 µg/mL; in data set [12], less than 0.02 µg/mL; in [13] it was 4 µg/mL (≈ 8.43 µM). In addition, the MIC was 2.25 µg/mL (≈ 4.74 µM) in [14]; 1 µg/mL (≈ 2.11 µM) in data set [15]; 0.04 µg/mL (≈ 0.0843 µM) in data set [16]; more than 16 µg/mL in data set [17]; 8 µg/mL (≈ 16.9 µM) in data set [18]; 4 µg/mL (≈ 8.43 µM) in data set [19]. Besides, in [20], the MIC stood at 0.13 µg/mL (≈ 0.274 µM). For the same compound, the activity in words entry in data set [6] (Klebsiella pneumonia (susceptible)) is listed as “active”. Further, the “Sequential ZOI” value came out at 2.2 cm in [21] (Day-1); 2 cm in data set [21] (Day-2); 1.8 cm in data set [21] (Day-3); 1.7 cm in data set [21] (Day-4); 1.7 cm in data set [21] (Day-5); 1.6 cm in [21] (Day-6). The “Sequential ZOI” value in [21] (Day-7) was determined as 1.8 cm. Also, in data set [22], the “drug release from bone cement in words” value was “sustained release of active over a period of 7 days”.
Regarding `Nc1ccc(S(=O)(=O)c2ccc(N)cc2)cc1` [Dapsone, dapsone, reference compound], in [1], the “Inhibition of inflammation (%) at 24 h post treatment” value came to 43.82%.
